{"source": "patent US20110306597A1", "about": "“Nicotinamide Derivatives” (priority 2008, published 2011)"}
{"molecular_target": "human recombinant H-PGDS (Homo sapiens, UniProt O60760)", "sequence (O60760 whole entry)": "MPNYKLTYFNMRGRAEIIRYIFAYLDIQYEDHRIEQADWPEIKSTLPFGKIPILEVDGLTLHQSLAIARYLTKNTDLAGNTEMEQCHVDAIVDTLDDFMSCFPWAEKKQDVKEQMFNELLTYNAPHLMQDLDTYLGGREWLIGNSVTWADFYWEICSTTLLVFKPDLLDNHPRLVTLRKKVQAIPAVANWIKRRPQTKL", "assay": "Fluorescence Intensity h-PGDS TBA Enzyme Assay", "type": "biochemical", "conditions": "1:175,000 human recombinant H-PGDS, highest inhibitor concentration typically 1 μM", "summary_of_the_method": "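Readout is PGH2 depletion: after a 42 s reaction with 5.0 μM PGH2 and 2.5 mM glutathione (pH 8.0 Tris, 10 min inhibitor preincubation), Fe(II) converts leftover PGH2 to MDA, which forms a fluorescent TBA complex. IC50s come from 11-point, 3-fold duplicate curves, 4-parameter fit.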", "units": {"IC50": "nM"}}
{"smiles": "Cc1cccc(-c2ccc(C(=O)NC(=O)[C@@H](N)C(C)C)cn2)c1", "note": "[Example 243, 6-(3-Methylphenyl)-N-L-valylnicotinamide]", "IC50": 124}
{"smiles": "Cc1cccc(-c2ccc(C(=O)NCC(=O)N(C)C)cn2)c1", "note": "[Example 244, N-[2-(Dimethylamino)-2-oxoethyl]-6-(3-methylphenyl)nicotinamide]", "IC50": 230}
{"smiles": "Cc1cccc(-c2ccc(C(=O)NCc3cccc(S(C)(=O)=O)c3)cn2)c1", "note": "[Example 245, 6-(3-Methylphenyl)-N-[3-(methylsulfonyl)benzyl] nicotinamide]", "IC50": 11.5}
{"smiles": "Cc1cccc(-c2ccc(C(=O)NCc3ccco3)cn2)c1", "note": "[Example 246, N-(2-Furylmethyl)-6-(3-methylphenyl)nicotinamide]", "IC50": 29.2}
{"smiles": "Cc1cccc(-c2ccc(C(=O)NCc3ccc(S(C)(=O)=O)cc3)cn2)c1", "note": "[Example 247, 6-(3-Methylphenyl)-N-[4-(methylsulfonyl)benzyl] nicotinamide]", "IC50": 18.1}
{"smiles": "Cc1cccc(-c2ccc(C(=O)NC(=O)CC(N)C3CC3)cn2)c1", "note": "(stereo not drawn) [Example 248, N-(3-Amino-3-cyclopropylpropanoyl)-6-(3-methylphenyl)nicotinamide]", "IC50": 73.3}
{"smiles": "Cc1cccc(-c2ccc(C(=O)NCCN3CCN(Cc4ccccc4)CC3)cn2)c1", "note": "[Example 249, N-[2-(4-Benzylpiperazin-1-yl)ethyl]-6-(3-methylphenyl)nicotinamide]", "IC50": 29.8}
{"smiles": "Cc1cccc(-c2ccc(C(=O)NC3CCOC3=O)cn2)c1", "note": "(stereo not drawn) [Example 250, 6-(3-Methylphenyl)-N-(2-oxotetrahydrofuran-3-yl)nicotinamide]", "IC50": 74.5}
{"smiles": "Cc1ccc(CNC(=O)c2ccc(-c3cccc(C)c3)nc2)cc1", "note": "[Example 251, N-(4-Methylbenzyl)-6-(3-methylphenyl)nicotinamide]", "IC50": 105}
{"smiles": "Cc1cccc(-c2ccc(C(=O)NC3CCOCC3)cn2)c1", "note": "[Example 252, 6-(3-Methylphenyl)-N-(tetrahydro-2H-pyran-4-yl)nicotinamide]", "IC50": 12.9}
{"smiles": "Cc1cccc(-c2ccc(C(=O)NCCC3CCN(C)CC3)cn2)c1", "note": "[Example 253, 6-(3-Methylphenyl)-N-[2-(1-methylpiperidin-4-yl)ethyl]nicotinamide]", "IC50": 100}
{"smiles": "Cc1cccc(-c2ccc(C(=O)NC(C)C)cn2)c1", "note": "[Example 254, N-Isopropyl-6-(3-methylphenyl)nicotinamide]", "IC50": 28.2}
{"smiles": "CCOC(=O)CC(NC(=O)c1ccc(-c2cccc(C)c2)nc1)c1ccc(OC)cc1", "note": "(stereo not drawn) [Example 255, Ethyl 3-(4-methoxyphenyl)-3-({[6-(3-methylphenyl)pyridin-3-yl]carbonyl}amino)propanoate]", "IC50": 38.7}
{"smiles": "O=C(Nc1ccccc1)c1ccc(-c2ccc(F)cc2)nc1", "note": "[Example 256, 6-(4-Fluorophenyl)-N-phenylnicotinamide]", "IC50": 145}
{"smiles": "CC(=O)N1CCC(CNC(=O)c2ccc(-c3ccc(F)cc3)nc2)CC1", "note": "[Example 257, N-[(1-Acetylpiperidin-4-yl)methyl]-6-(4-fluorophenyl)nicotinamide]", "IC50": 777}
{"smiles": "CCOC(=O)CC(NC(=O)c1ccc(-c2ccc(F)cc2)nc1)c1ccccc1", "note": "(stereo not drawn) [Example 258, Ethyl 3-({[6-(4-fluorophenyl)pyridin-3-yl]carbonyl}amino)-3-phenylpropanoate]", "IC50": 715}
{"smiles": "Cc1ccc(CN2CCC(NC(=O)c3ccc(-c4ccc(F)cc4)nc3)C2=O)cc1", "note": "(stereo not drawn) [Example 259, 6-(4-Fluorophenyl)-N-[1-(4-methylbenzyl)-2-oxopyrrolidin-3-yl]nicotinamide]", "IC50": 280}
{"smiles": "CCOC(=O)C(CNC(=O)c1ccc(-c2ccc(F)cc2)nc1)C1CCCC1", "note": "(stereo not drawn) [Example 260, Ethyl 2-cyclopentyl-3-({[6-(4-fluorophenyl)pyridin-3-yl]carbonyl}amino)propanoate]", "IC50": 316}
{"smiles": "O=C(NCCCNc1ccccn1)c1ccc(-c2ccc(F)cc2)nc1", "note": "[Example 261, 6-(4-Fluorophenyl)-N-[3-(pyridin-2-ylamino)propyl]nicotinamide]", "IC50": 91.8}
{"smiles": "CC(O)CNC(=O)c1ccc(-c2ccc(F)cc2)nc1", "note": "(stereo not drawn) [Example 262, 6-(4-Fluorophenyl)-N-(2-hydroxypropyl)nicotinamide]", "IC50": 992}
{"smiles": "COC(=O)CNC(=O)[C@H](C)NC(=O)c1ccc(-c2ccc(F)cc2)nc1", "note": "[Example 263, Methyl N-{[6-(4-fluorophenyl)pyridin-3-yl]carbonyl}-L-alanylglycinate]", "IC50": 825}
{"smiles": "O=C(NCCc1ccncc1)c1ccc(-c2ccc(F)cc2)nc1", "note": "[Example 264, 6-(4-Fluorophenyl)-N-(2-pyridin-4-ylethyl)nicotinamide]", "IC50": 238}
{"smiles": "CC(NC(=O)c1ccc(-c2ccc(F)cc2)nc1)c1ccccc1", "note": "(stereo not drawn) [Example 265, 6-(4-Fluorophenyl)-N-(1-phenylethyl)nicotinamide]", "IC50": 152}
{"smiles": "CN(C)CC(C)(C)CNC(=O)c1ccc(-c2ccc(F)cc2)nc1", "note": "[Example 266, N-[3-(Dimethylamino)-2,2-dimethylpropyl]-6-(4-fluorophenyl)nicotinamide]", "IC50": "≥ 1000"}
{"smiles": "O=C(NCc1ccc(C(F)(F)F)cc1)c1ccc(-c2ccc(F)cc2)nc1", "note": "[Example 267, 6-(4-Fluorophenyl)-N-[4-(trifluoromethyl)benzyl] nicotinamide]", "IC50": "≥ 1000"}
{"smiles": "COC(=O)c1ccc(CNC(=O)c2ccc(-c3ccc(F)cc3)nc2)cc1", "note": "[Example 268, Methyl 4-[({[6-(4-fluorophenyl)pyridin-3-yl]carbonyl}amino)methyl benzoate]", "IC50": 286}
{"smiles": "NC(CC(=O)NC(=O)c1ccc(-c2ccc(F)cc2)nc1)C1CC1", "note": "(stereo not drawn) [Example 269, N-(3-Amino-3-cyclopropylpropanoyl)-6-(4-fluorophenyl)nicotinamide]", "IC50": 672}
{"smiles": "O=C(NCCC1CCCCO1)c1ccc(-c2ccc(F)cc2)nc1", "note": "(stereo not drawn) [Example 270, 6-(4-Fluorophenyl)-N-[2-(tetrahydro-2H-pyran-2-yl)ethyl]nicotinamide]", "IC50": 216}
{"smiles": "COc1cccc(-c2ccc(C(=O)NCCN3CCCCC3=O)cn2)c1", "note": "[Example 271, 6-(3-Methoxyphenyl)-N-[2-(2-oxopiperidin-1-yl)ethyl]nicotinamide]", "IC50": 219}
{"smiles": "CCOC(=O)CC(NC(=O)c1ccc(-c2cccc(OC)c2)nc1)c1ccccc1", "note": "(stereo not drawn) [Example 272, Ethyl 3-({[6-(3-methoxyphenyl)pyridin-3-yl]carbonyl}amino)-3-phenylpropanoate]", "IC50": 474}
{"smiles": "COc1cccc(-c2ccc(C(=O)NCC3CCN(C(C)=O)CC3)cn2)c1", "note": "[Example 273, N-[(1-Acetylpiperidin-4-yl)methyl]-6-(3-methoxyphenyl)nicotinamide]", "IC50": 559}
{"smiles": "COc1cccc(-c2ccc(C(=O)NC3CCN(Cc4ccc(C)cc4)C3=O)cn2)c1", "note": "(stereo not drawn) [Example 274, 6-(3-Methoxyphenyl)-N-[1-(4-methylbenzyl)-2-oxopyrrolidin-3-yl]nicotinamide]", "IC50": 106}
{"smiles": "COc1cccc(-c2ccc(C(=O)NCc3ccc(OC)c(OC)c3)cn2)c1", "note": "[Example 275, N-(3,4-Dimethoxybenzyl)-6-(3-methoxyphenyl)nicotinamide]", "IC50": 179}
{"smiles": "CCOC(=O)CC(NC(=O)c1ccc(-c2cccc(OC)c2)nc1)c1ccccc1Cl", "note": "(stereo not drawn) [Example 276, Ethyl 3-(2-chlorophenyl)-3-({[6-(3-methoxyphenyl)pyridin-3-yl]carbonyl}amino) propanoate]", "IC50": 252}
{"smiles": "COc1cccc(-c2ccc(C(=O)NC(=O)CC(N)c3ccc(OC)c(OC)c3)cn2)c1", "note": "(stereo not drawn) [Example 277, N-[3-Amino-3-(3,4-dimethoxyphenyl)propanoyl]-6-(3-methoxyphenyl) nicotinamide]", "IC50": 274}
{"smiles": "COc1cccc(-c2ccc(C(=O)NCCc3nc(C)no3)cn2)c1", "note": "[Example 278, 6-(3-Methoxyphenyl)-N-[2-(3-methyl-1,2,4-oxadiazol-5-yl)ethyl]nicotinamide]", "IC50": 324}
{"smiles": "COc1cccc(-c2ccc(C(=O)NCC(C)(C)N3CCOCC3)cn2)c1", "note": "[Example 279, 6-(3-Methoxyphenyl)-N-(2-methyl-2-morpholin-4-ylpropyl)nicotinamide]", "IC50": 211}
{"smiles": "COc1cccc(-c2ccc(C(=O)NCc3ccc(SC)cc3)cn2)c1", "note": "[Example 280, 6-(3-Methoxyphenyl)-N-[4-(methylthio)benzyl]nicotinamide]", "IC50": 62.4}
{"smiles": "COc1cccc(-c2ccc(C(=O)NCc3ccc(Cl)cc3)cn2)c1", "note": "[Example 281, N-(4-Chlorobenzyl)-6-(3-methoxyphenyl)nicotinamide]", "IC50": 561}
{"smiles": "COc1cccc(-c2ccc(C(=O)NCC(C)(C)OC)cn2)c1", "note": "[Example 282, N-(2-Methoxy-2-methylpropyl)-6-(3-methoxyphenyl)nicotinamide]", "IC50": 959}
{"smiles": "COC(=O)CNC(=O)c1ccc(-c2cccc(OC)c2)nc1", "note": "[Example 283, Methyl N-{[6-(3-methoxyphenyl)pyridin-3-yl]carbonyl}glycinate]", "IC50": 826}
{"smiles": "COc1cccc(-c2ccc(C(=O)NCC3CCCCO3)cn2)c1", "note": "(stereo not drawn) [Example 284, 6-(3-Methoxyphenyl)-N-(tetrahydro-2H-pyran-2-ylmethyl)nicotinamide]", "IC50": 519}
{"smiles": "COc1cccc(-c2ccc(C(=O)NCCN(C)C)cn2)c1", "note": "[Example 285, N-[2-(Dimethylamino)ethyl]-6-(3-methoxyphenyl) nicotinamide]", "IC50": "≥ 1000"}
{"smiles": "COc1cccc(-c2ccc(C(=O)NCc3ccc(C(F)(F)F)cc3)cn2)c1", "note": "[Example 286, 6-(3-Methoxyphenyl)-N-[4-(trifluoromethyl)benzyl] nicotinamide]", "IC50": 536}
{"smiles": "COc1cccc(-c2ccc(C(=O)NC(=O)[C@@H](N)C(C)C)cn2)c1", "note": "[Example 287, 6-(3-Methoxyphenyl)-N-L-valylnicotinamide]", "IC50": 816}
{"smiles": "COc1cccc(-c2ccc(C(=O)NCc3ccco3)cn2)c1", "note": "[Example 288, N-(2-Furylmethyl)-6-(3-methoxyphenyl)nicotinamide]", "IC50": 333}
{"smiles": "CCCCNC(=O)c1ccc(-c2cccc(OC)c2)nc1", "note": "[Example 289, N-Butyl-6-(3-methoxyphenyl)nicotinamide]", "IC50": 466}
{"smiles": "COc1cccc(-c2ccc(C(=O)NCCCN3CCCC3=O)cn2)c1", "note": "[Example 290, 6-(3-Methoxyphenyl)-N-[3-(2-oxopyrrolidin-1-yl)propyl]nicotinamide]", "IC50": 627}
